Each structure is given as a SMILES string.

A short description of this series: RP, Waters CORTECS UPLC C18, 100 × 2.1 mm, 1.6 µm, 40 °C, 0.4 mL/min, estimated dead time 0.55 min; A: water + 0.1% formic acid, pH 3; B: acetonitrile + 0.1% formic acid, pH 3; gradient (min/%B) 0/5 1.12/5 6.41/99.5 10.01/99.5. As to conditions: stereoisomer not certain.

For `O=C(NC(=O)c1c(F)cccc1F)Nc1cc(Cl)c(OC(F)(F)C(F)F)c(Cl)c1` [Hexaflumuron], the LC retention time is 5.61 min.

For the compound `OCC1OC(O)C(O)C1O` (centres undefined) [RIBOSE], the LC retention time was 0.798 min.

In the case of `Cc1cnc2c(C(=O)O)c(Cl)ccc2c1` [Quinmerac], the LC retention time is 3.17 min.

Take `CCCCCCCCCCCCCCCCCCCC[n+]1cccc(S(=O)(=O)[O-])c1` [C20-APS]: the LC retention time was 7 min.

As to `CCCCCC[n+]1cccc(S(=O)(=O)[O-])c1` [C6-APS], the LC retention time is 2.9 min.

Consider `CC12CCC(O)CC1CCC1C2CC(O)C2(C)C(C3=CC(=O)OC3)CCC12O` (centres undefined) [Digoxigenin], for which the LC retention time is 2.45 min.

In the case of `CCCCCCCCCCCC(=O)OC(CC(=O)[O-])C[N+](C)(C)C` [Lauroyl-L-carnitine], the LC retention time is 4.7 min.

Turning to `CC(=O)NCCCC(=O)O` [4-ACETAMIDOBUTANOATE], the LC retention time was 0.817 min.

For the compound `CC1(C(=O)Nc2ccc(O)c(Cl)c2Cl)CCCCC1` [Fenhexamid], the LC retention time is 5 min.

`COc1ccc2[nH]cc(CCNC(C)=O)c2c1` [MELATONIN]: the LC retention time was 3.31 min.

`O=c1[nH]c(=O)c2[nH]cnc2[nH]1` [XANTHINE]: the LC retention time was 0.727 min.

Take `COC(=O)Cc1c[nH]c2ccccc12` [INDOLE-3-METHYL ACETATE]: the LC retention time is 4.14 min.

As to `O=C(Nc1ccccc1)Nc1cnns1` [Thidiazuron], the LC retention time is 3.74 min.

Regarding `Cc1ccc(C(C)NC(=O)C(NC(=O)OC(C)C)C(C)C)cc1` (centres undefined) [Iprovalicarb], the LC retention time was 4.86 min.

Turning to `CNC(=O)c1cc(Cl)cc(C)c1NC(=O)c1cc(Br)nn1-c1ncccc1Cl` [Chlorantraniliprole], the LC retention time was 4.63 min.

Consider `CCCCCCCCCCCC[n+]1cccc(S(=O)(=O)[O-])c1` [C12-APS], for which the LC retention time was 4.89 min.

For `CC1(C)CON(Cc2ccccc2Cl)C1=O` [Clomazone], the LC retention time is 4.64 min.

Consider `O=c1[nH]c(=O)c2ncn(C3OC(CO)C(O)C3O)c2[nH]1` (centres undefined) [XANTHOSINE], for which the LC retention time was 0.752 min.

`CC(=O)OCC(=O)C1(O)CCC2C3CCC4=CC(=O)CCC4(C)C3C(O)CC21C` (centres undefined) [CORTISOL 21-ACETATE]: the LC retention time was 4.25 min.

Consider `CSC(C)=NOC(=O)N(C)SN(C)C(=O)ON=C(C)SC` [Thiodicarb], for which the LC retention time was 4 min.

As to `CCC(C)(NC(=O)c1cc(Cl)c(C)c(Cl)c1)C(=O)CCl` (centres undefined) [Zoxamide], the LC retention time was 5.55 min.

For `O=C(O)c1ccccc1` [BENZOATE], the LC retention time is 2.13 min.

Consider `CC1COC(Cn2cncn2)(c2ccc(Oc3ccc(Cl)cc3)cc2Cl)O1` (centres undefined) [Difenoconazole], for which the LC retention time is 5.46 min.

For the compound `C#CC(C)(C)NC(=O)c1cc(Cl)cc(Cl)c1` [Propyzamide], the LC retention time was 5.01 min.

Take `CC1NCCc2cc(O)c(O)cc21` (centres undefined) [SALSOLINOL]: the LC retention time was 0.749 min.

On to `CCSC(=O)N1CCCCCC1` [Molinate], for which the LC retention time was 5.03 min.

Consider `CCc1nn(C)c(C(=O)NCc2ccc(C(C)(C)C)cc2)c1Cl` [Tebufanpyrad], for which the LC retention time was 5.93 min.

In the case of `NCCc1ccc(O)cc1` [TYRAMINE], the LC retention time was 0.755 min.

Regarding `Cc1cn(C2CC(O)C(CO)O2)c(=O)[nH]c1=O` (centres undefined) [THYMIDINE], the LC retention time is 1.1 min.

As for `CC12CCC(=O)C=C1CCC1C2C(O)CC2(C)C1CCC2(O)C(=O)CO` (centres undefined) [CORTISOL], the LC retention time was 3.67 min.

`CC(C)(C)C(=O)C(Oc1ccc(Cl)cc1)n1cncn1` (centres undefined) [Triadimefon]: the LC retention time was 4.95 min.

In the case of `O=C(O)CCCCC1SCC2NC(=O)NC21` (centres undefined) [BIOTIN], the LC retention time was 2.7 min.

Consider `CC=C(C)C(=O)NCC(=O)O` [Tiglyl Glycine], for which the LC retention time is 2.22 min.

For the compound `CC(C)=CCCC(C)C1CCC2C3CC=C4CC(O)CCC4(C)C3CCC12C` (centres undefined) [Desmosterol], the LC retention time was 6.81 min.
